From patent US8946280B2, “Plant growth regulating compounds” (Syngenta Participations AG, priority 2010, dated 2015)

Tests used:
[1] = test system: Orobanche cumana Wallr. seeds (race F; seed lots IN146 and IN153); test: Germination of preconditioned Orobanche cumana seeds on glass fiber filter paper in petri dishes; format: in vivo; settings: mean, N = 5 × 100 seeds, re-transformed data; for Germination (%): seed lot IN146 raceF, examined 10 days later
Protocol: The effect of compounds of formula (I) on germination of Orobanche cumana Wallr. seeds was evaluated on glass fiber filter paper (GFFP) in petri dishes. Seeds were preconditioned at moisture and suitable temperature to become responsive to the specific chemical germination stimulants.
Test compounds were dissolved in DMSO (10 000 mg 1^−1) and stored at room temperature in a desiccators with desiccants. The stock solutions were dissolved with deionised water to the appropriate final test concentration.
Seeds of O. cumana race ‘F’ were collected from sunflower fields in Manzanilla (Seville, Spain) in 2006 (seed lot IN146) and 2008 (seed lot IN153) and stored at room temperature. To separate seeds from heavy organic debris, a modified sucrose floatation technique as described by Hartman & Tanimonure (Plant Disease (1991), 75, p. 494) was applied. Seeds were filled into a separation funnel and stirred in water. When seeds floated to the surface, the water fraction containing heavy debris was discarded. Seeds were re-suspended in 2.5M sucrose solution (specific gravity of 1.20) and heavy debris was allowed to settle down for 60 min. After removing debris, seeds were disinfected in 1% sodium hypochlorite solution and 0.025% (v/v) Tween 20 for 2 min. The seeds were decanted onto two layers of cheesecloth, rinsed with sterile deionised water and re-suspended in sterile deionised water. Two ml of the seed suspension containing approximately 150-400 seeds were spread evenly on two layers of sterile glass fiber filter paper disc ([…]) in Petri dishes (Ø9 cm). After wetting the discs with 3 ml sterile deionised water, petri dishes were sealed with parafilm. Seeds were incubated for 10 days at 20° C. in the dark for seed conditioning. The upper disc with conditioned seeds was briefly dried, transferred to a petri dish lined with a dry GFFP disc, and wetted with 6 ml of the appropriate test solution. The compounds of formula (I) were tested at concentrations of 0.001, 0.01, and 0.1 mg 1^−1. The strigolactone analogue GR24 (commercially available as a mixture of isomers) was included as positive control and 0.001% DMSO as negative control. All treatments were tested in five replicates. Seeds were re-incubated at 20° C. in the dark and examined for germination 10 days later. The radicles of germinated seeds were stained for 5 min with blue ink (MIGROS, Switzerland) in 5% acetic acid according to Long et al. (Seed Science Research (2008), 18, p. 125). After staining, seeds were scanned using a flatbed scanner with an optical resolution of 1200 dpi (PULSTEK, OpticPro ST28) or photographed using a camera stand mounted with a digital SLR camera (Canon EOS 5D). Germination of 100 seeds per replicate was evaluated on digital images. Seeds were considered germinated when the radicle protruded from the seed coat. SAS statistical software package version 9.1 was used for analysis of variance (GLM procedure) and multiple comparisons of treatment means (Sidak t-test) based on arcsine transformed percentage germination data.

[2] = Table 8, seed lot IN153, race F, 0.001 mg l^−1
[3] = Table 8, seed lot IN153, race F, 0.01 mg l^−1
[4] = Table 8, seed lot IN153, race F, 0.1 mg l^−1

CC1=CC(O/C=C2/C(=O)N(C)C3c4ccccc4C[C@H]23)OC1=O (stereo in doubt) [Compound P3, 1-Methyl-(3aR*,8bS*,5′R*)-3-[1-(4-Methyl-5-oxo-2,5-dihydro-furan-2-yloxy)-meth-(E)-ylidene]-3,3a,4,8b-tetrahydro-1H-indeno[1,2-b]pyrrol-2-one]
Germination (%) ([1]; 0.001 mg l^−1): 68%
Germination (%) ([1]; 0.01 mg l^−1): 82.4%
Germination (%) ([1]; 0.1 mg l^−1): 84%
melting point: 130 to 135 °C

CC1=CC(OC=C2C(=O)N(c3nccs3)C3c4ccccc4CC23)OC1=O (stereo not shown) [Compound A26]
Germination % at concentration of 0.001 mg l^−1 [1, 2]: 93.9 abc %
Germination % at concentration of 0.01 mg l^−1 [1, 3]: 95.4 ab %
Germination % at concentration of 0.1 mg l^−1 [1, 4]: 93.9 abc %

CC1=C[C@H](O/C=C2/C(=O)O[C@@H]3c4ccccc4C[C@H]23)OC1=O [GR24, reference compound]
Germination (%) ([1]; 0.001 mg l^−1): 25.9%
Germination (%) ([1]; 0.01 mg l^−1): 44.9%
Germination (%) ([1]; 0.1 mg l^−1): 59.8%

GR-24
Germination % at concentration of 0.001 mg l^−1 ([1]; Table 5, seed lot IN146, race F, 0.001 mg l^−1): 21.2 de %
Germination % at concentration of 0.01 mg l^−1 ([1]; Table 5, seed lot IN146, race F, 0.01 mg l^−1): 33.3 cd %
Germination % at concentration of 0.1 mg l^−1 ([1]; Table 5, seed lot IN146, race F, 0.1 mg l^−1): 45.9 bcd %
Germination % at concentration of 0.001 mg l^−1 ([1]; Table 6, seed lot IN146, race F, 0.001 mg l^−1): 17.5 d %
Germination % at concentration of 0.01 mg l^−1 ([1]; Table 6, seed lot IN146, race F, 0.01 mg l^−1): 61.4 c %
Germination % at concentration of 0.1 mg l^−1 ([1]; Table 6, seed lot IN146, race F, 0.1 mg l^−1): 86.6 ab %
Germination % at concentration of 0.001 mg l^−1 ([1]; Table 7, seed lot IN153, race F, 0.001 mg l^−1): 89.5 ab %
Germination % at concentration of 0.01 mg l^−1 ([1]; Table 7, seed lot IN153, race F, 0.01 mg l^−1): 97.2 a %
Germination % at concentration of 0.1 mg l^−1 ([1]; Table 7, seed lot IN153, race F, 0.1 mg l^−1): 96.2 ab %
Germination % at concentration of 0.001 mg l^−1 [1, 2]: 84.1 abcde %
Germination % at concentration of 0.01 mg l^−1 [1, 3]: 94.1 abc %
Germination % at concentration of 0.1 mg l^−1 [1, 4]: 97.0 a %
